From publication PMC3116320 (Indian Journal of Pharmaceutical Sciences, 2010)
pIC50: −log10 of the molar value.

What was measured:
Experiment in all cases: Sulforhodamine-B
Type in all cases: cell-based
[1] = system: MCF7 breast cancer cell line; details: Homo sapiens, MCF7, read-out: IC50 anticancer evaluation MCF
[2] = system: HOP62 lung cancer cell line; details: Homo sapiens, HOP-62, read-out: IC50 anticancer evaluation Hop62
[3] = system: Colo205 colon cancer cell line; details: Homo sapiens, COLO 205, read-out: IC50 anticancer evaluation Colo205
[4] = system: HT29 colon cancer cell line; details: Homo sapiens, HT-29, read-out: IC50 anticancer evaluation HT29
[5] = system: MIA-PA-CA-2 pancreatic cancer cell line; details: Homo sapiens, MIA PaCa-2, read-out: IC50 anticancer evaluation Miapaca-2

Measured: pIC50

COc1cccc2c1C(=O)c1c(O)c3c(c(O)c1C2=O)C[C@@](O)(C(=O)CO)C[C@@H]3O[C@H]1C[C@H](N)[C@H](O)[C@H](C)O1 [Adriamycin]
> 4.82: [1] | [2] | [3] | [4] | [5]
